Here are results for eleven compounds from US9944598B2, “Mono- or di-substituted indole derivatives as dengue viral replication inhibitors” (priority 2014, dated 2018).

The test system of experiment [1] is DENV-3 strain H87 prototype. Kind of experiment: Tetravalent RT-qPCR assay Protocol B, serotype 3. In kind it is cell-based. The conditions noted are these: Dengue virus, DENV3, 168 h, RT-qPCR serotype 3 H87, Vero cells, 7 days. The method, then:
Vero cells (4×10^4) were seeded in 96-well plates. After one day, cell culture medium was replaced with 100 μL assay medium containing a 2×, 3× or 5× serial dilution of the compound (concentration range: 50 μg/mL-0.00038 μg/mL, 50 μg/mL-0.0076 μg/mL, and 50 μg/mL-0.00013 μg/mL, respectively) and 100 μL of dengue virus dilution, where a Ct of ˜20 is achieved in RTqPCR. Following a 2 hour incubation period, the cell monolayer was washed 3 times with assay medium to remove residual, non-adsorbed virus and cultures were further incubated for either 4 days (DENV-2 NGC-Tongalike) or 7 days (DENV-1 Djibouti strain D1/H/IMTSSA/98/606, DENV-3 strain H87 prototype, DENV-4 strain H241) in the presence of the inhibitor. Supernatant was harvested and viral RNA load was determined by real-time quantitative RT-PCR. The 50% effective concentration (EC50), which is defined as the compound concentration that is required to inhibit viral RNA replication by 50%, was determined using logarithmic interpolation (Tables 7 and 8).
RNA was isolated from 100 μL supernatant with the NucleoSpin 96 Virus kit (Filter Service, Düren, Germany) as described by the manufacturer. The sequences of the TaqMan primers (DENV-For, DENV-Rev; Table 5) and TaqMan probes (DENV-Probe Table 5) were selected from non-structural gene 3 (NS3) or NSS, of the respective flaviviruses using Primer Express software (version 2.0; Applied Biosystems, Lennik, Belgium). The TaqMan probe was fluorescently labelled with 6-carboxyfluorescein (FAM) at the 5′ end as the reporter dye, and with minor groove binder (MGB) at the 3′ end as the quencher (Table 5). One-step, quantitative RT-PCR was performed in a total volume of 25 μL, containing 13.9375 μL H2O, 6.25 μL master mix (Eurogentec, Seraing, Belgium), 0.375 μL forward primer, 0.375 μL reverse primer, 1 μL probe, 0.0625 μL reverse transcriptase (Eurogentec) and 3 μL sample. RT-PCR was performed using the ABI 7500 Fast Real-Time PCR System (Applied Biosystems, Branchburg, N.J., USA) using the following conditions: 30 min at 48° C. and 10 min at 95° C., followed by 40 cycles of 15 s at 95° C. and 1 min at 60° C. The data was analyzed using the ABI PRISM 7500 SDS software (version 1.3.1; Applied Biosystems). For absolute quantification, standard curves were generated using 10-fold dilutions of template preparations of known concentrations.

The next experiment concerns DENV-3 strain H87. Nature of the experiment: Tetravalent RT-qPCR assay Protocol A, serotype 3. The conditions noted are these: Dengue virus, DENV3, 72 h, RT-qPCR serotype 3 H87, Vero cells, 3 days. It counts as cell-based. Here is the method: The antiviral activity of the compounds of the invention was tested against DENV-1 strain TC974#666 (NCPV), DENV-2 strain 16681, DENV-3 strain H87 (NCPV) and DENV-4 strains H241 (NCPV) and EDEN (SG/06K2270DK1/2005; GenBank accession number QG398256) in a RT-qPCR assay. Therefore, Vero cells were infected with either DENV-1, or -2, or -3, or -4 in the presence or absence of test compounds. At day 3 post-infection, the cells were lysed and cell lysates were used to prepare cDNA of both a viral target (the 3′UTR of DENV; table 2) and a cellular reference gene (β-actin, table 2). Subsequently, a duplex real time PCR was performed on a Lightcycler480 instrument. The generated Cp value is inversely proportional to the amount of RNA expression of these targets. Inhibition of DENV replication by a test compound result in a shift of Cp's for the 3′UTR gene. On the other hand, if a test compound is toxic to the cells, a similar effect on β-actin expression will be observed. The comparative ΔΔCp method is used to calculate EC50, which is based on the relative gene expression of the target gene (3′UTR) normalized with the cellular housekeeping gene (β-actin). In addition, CC50 values were determined based on the Cp values acquired for the housekeeping gene β-actin.
The culture medium consisted of minimal essential medium supplemented with 2% of heat-inactivated fetal calf serum, 0.04% gentamycin (50 mg/mL) and 2 mM of L-glutamine. Vero cells, obtained from ECACC, were suspended in culture medium and 75 μL/well was added in 96-well plates (10000 cells/well), which already contain the antiviral compounds. Typically, these plates contain a 4-fold serial dilution of 9 dilution steps of the test compound at 200 times the final concentration in 100% DMSO (500 nL; final concentration range: 25 μM-0.00038 μM). In addition, each plate contains wells which are assigned as virus controls (containing cells and virus in the absence of compound) and cell controls (containing cells in the absence of virus and compound). Once the cells were added in the plates, the plates were incubated in a fully humidified incubator (37° C., 5% CO2) until the next day. Then, DENV-1 strain TC974#666, DENV-2 strain 16681, DENV-3 strain H87 or DENV-4 strains H241 or EDEN were added. […] In parallel, 25 μL of culture medium was added to the cell controls. Next, the plates were incubated for 3 days in a fully humidified incubator (37° C., 5% CO2). After 3 days, the supernatant was removed from the wells and the cells were washed twice with ice-cold PBS (˜100 μL). The cell pellets within the 96-well plates were stored at −80° C. for at least 1 day. Next, RNA was extracted using the Cells-to-CT™ lysis kit, according to the manufacture's guideline (Applied Biosystems). The cell lysates can be stored at −80° C. or immediately used in the reverse transcription step.
In preparation of the reverse transcription step, mix A (table 3A) was prepared and 7.57 μL/well was dispensed in a 96-well plate. After addition of 5 μL of the cell lysates, a five minute denaturation step at 75° C. was performed (table 3B). Afterwards, 7.43 μL of mix B was added (table 3C) and the reverse transcription step was initiated (table 3D) to generate cDNA.
Finally, a RT-qPCR mix was prepared, mix C (table 4A), dispensed in 96-well LightCycler qPCR plates to which 3 μL of cDNA was added and the qPCR was performed according to the conditions in table 4B on a LightCycler 480.
Using the LightCycler software and an in-house LIMS system, dose response curves for each compound were calculated and the half maximal effective concentration (EC50) and the half maximal cytotoxic concentration (CC50) were determined (Tables 6-9).
(In general: Real-time PCR tracks product formation cycle by cycle.)

As to `COc1cc(NC(C(=O)c2c[nH]c3cc(F)ccc23)c2ccc(Cl)cc2OC)cc(OCCO)c1` (single isomer, unassigned) [Compound 1A, 2-(4-chloro-2-methoxyphenyl)-1-(6-fluoro-1H-indol-3-yl)-2-((3-(2-hydroxyethoxy)-5-methoxyphenyl)amino)ethanone], the EC50 – broadly, the midpoint of the concentration-response curve – in experiment [1] was less than 0.015 µM; in the experiment with DENV-3 strain H87 it was 0.063 µM.
The like results for `COc1cc(NC(C(=O)c2c[nH]c3c(C)c(F)ccc23)c2ccc(Cl)cc2OC)cc(OCCO)c1` (single isomer, unassigned) [Compound 2A, 2-(4-chloro-2-methoxyphenyl)-1-(6-fluoro-7-methyl-1H-indol-3-yl)-2-((3-(2-hydroxyethoxy)-5-methoxyphenyl)amino)ethanone] were, in that order, 0.021 µM and 0.053 µM.
The matching figures for `COc1cc(NC(C(=O)c2c[nH]c3c(C)c(Cl)ccc23)c2ccc(Cl)cc2OC)cc(OCCO)c1` (single isomer, unassigned) [Compound 3A, 2-(4-chloro-2-methoxyphenyl)-1-(6-chloro-7-methyl-1H-indol-3-yl)-2-((3-(2-hydroxyethoxy)-5-methoxyphenyl)amino)ethanone]: 0.02 µM and 0.036 µM.
For the compound `COc1cc(NC(C(=O)c2c[nH]c3cc(Cl)ccc23)c2ccc(Cl)cc2OC)cc(OCCO)c1` (single isomer, unassigned) [Compound 4A, 1-(6-chloro-1H-indol-3-yl)-2-(4-chloro-2-methoxyphenyl)-2-((3-(2-hydroxyethoxy)-5-methoxyphenyl)amino)ethanone], the EC50 in experiment [1] came to 0.029 µM; in the experiment with DENV-3 strain H87, 0.065 µM.
The like results for `COc1cc(NC(C(=O)c2c[nH]c3cc(OC)ccc23)c2ccc(Cl)cc2OC)cc(OCCO)c1` (single isomer, unassigned) [Compound 5A, 2-(4-chloro-2-methoxyphenyl)-2-((3-(2-hydroxyethoxy)-5-methoxyphenyl)amino)-1-(6-methoxy-1H-indol-3-yl)ethanone] were, in that order, 0.025 µM and 0.068 µM.
The like results for `COc1cc(NC(C(=O)c2c[nH]c3cc(OC)c(C)cc23)c2ccc(Cl)cc2OC)cc(OCCO)c1` (single isomer, unassigned) [Compound 6A, 2-(4-chloro-2-methoxyphenyl)-2-((3-(2-hydroxyethoxy)-5-methoxyphenyl)amino)-1-(6-methoxy-5-methyl-1H-indol-3-yl)ethanone] were, in that order, less than 0.015 µM and 0.026 µM.
The matching figures for `COc1cc(NC(C(=O)c2c[nH]c3cc(OC)c(F)cc23)c2ccc(Cl)cc2OC)cc(OCCO)c1` (single isomer, unassigned) [Compound 7A, 2-(4-chloro-2-methoxyphenyl)-1-(5-fluoro-6-methoxy-1H-indol-3-yl)-2-((3-(2-hydroxyethoxy)-5-methoxyphenyl)amino)ethanone]: less than 0.017 µM and 0.07 µM.
As for `COc1cc(NC(C(=O)c2c[nH]c3c(C)cc(F)cc23)c2ccc(Cl)cc2OC)cc(OCCO)c1` (single isomer, unassigned) [Compound 8A, 2-(4-chloro-2-methoxyphenyl)-1-(5-fluoro-7-methyl-1H-indol-3-yl)-2-((3-(2-hydroxyethoxy)-5-methoxyphenyl)amino)ethanone], the concentration giving a half-maximal response (EC50) is 0.032 µM in experiment [1] and 0.076 µM in the experiment on DENV-3 strain H87.
The like results for `COc1cc(NC(C(=O)c2c[nH]c3cc(F)c(F)cc23)c2ccc(Cl)cc2OC)cc(OCCO)c1` (single isomer, unassigned) [Compound 9A, 2-(4-chloro-2-methoxyphenyl)-1-(5,6-difluoro-1H-indol-3-yl)-2-((3-(2-hydroxyethoxy)-5-methoxyphenyl)amino)ethanone] were, in that order, 0.018 µM and 0.063 µM.
The like results for `COc1cc(NC(C(=O)c2c[nH]c3c(F)cc(C)cc23)c2ccc(Cl)cc2OC)cc(OCCO)c1` (single isomer, unassigned) [Compound 10A, 2-(4-chloro-2-methoxyphenyl)-1-(7-fluoro-5-methyl-1H-indol-3-yl)-2-((3-(2-hydroxyethoxy)-5-methoxyphenyl)amino)ethanone] were, in that order, 0.027 µM and 0.07 µM.
The matching figures for `COc1cc(NC(C(=O)c2c[nH]c3c(F)c(F)ccc23)c2ccc(Cl)cc2OC)cc(OCCO)c1` (single isomer, unassigned) [Compound 11B, 2-(4-chloro-2-methoxyphenyl)-1-(6,7-difluoro-1H-indol-3-yl)-2-((3-(2-hydroxyethoxy)-5-methoxyphenyl)amino)ethanone]: 0.026 µM and 0.07 µM.
